Test results from patent US6881749B2, “Pyranoindazoles and their use for the treatment of glaucoma” (Alcon, Inc., priority 2001, dated 2005).

Columns and labels:
monkey = conditions: due to its α1A receptor activity; cited from earlier work
[1] = tested on: Conscious Cynomolgus Monkeys; assay: IOP response in conscious cynomolgus monkeys; assay type: in vivo, cynomolgus monkey; conditions: dose 100 μg, 6 hours after dose
rabbits = conditions: cited from earlier work

COc1ccccc1N1CCN(CCCNc2c(C)c(=O)n(C)c(=O)n2C)CC1 [5-methylurapidil]
effect on IOP (monkey): lowers IOP

COc1cc(C[C@@H](C)N)c(OC)cc1I [(R)-DOI]
Percent IOP Reduction ± SEM [1]: 34.4 ± 4.98%

CCCN(CCC)C1CCc2cccc(O)c2C1 (stereo not drawn) [Example 8-OH-DPAT, 8-hydroxydipropylaminotetralin]
effect on IOP (rabbits): reduces IOP
